Test results as given in patent publication US20240025922A1, “TETRAHYDROPYRIDO[3,4-d]PYRIMIDINES AS HPK1 INHIBITORS” (Merck Patent GmbH, priority 2022, published 2024).

How the values were obtained:
[1] = molecular target: full-length human HPK1 (MAP4K1) (Homo sapiens (Human), UniProt Q92918); test: HPK1 Kinase Assay (Biochemical Assay), ADP-Glo; conditions: GST-HPK1 3.2 nM, 10 μM ATP, MBP substrate, read-out: HPK1 enzymatic IC50
Description: HPK1 Kinase Assay (Biochemical Assay).
A recombinant fusion protein consisting of full-length human HPK1 (MAP4K1) with an N-terminal Glutatione S-transferase (GST) tag was produced in insect cells Sf21 using the baculovirus expression system. GST-HPK1 protein was purified from cell lysates by glutathione Sepharose affinity chromatography. The assay is run in three continuous steps: 1) the HPK1 enzymatic kinase reaction, 2) an ATP depletion, and 3) the ADP detection, the steps 2 and 3 are performed with ADP-Glo™ Kinase Assay kit from Promega (V9101). Test compounds were prepared by 10-point serial dilution in dimethyl sulfoxide (DMSO) and 100 nL of each dilution was spotted onto a 384-well Optiplate (Perkin Elmer and Cat #6007299) by Labcyte Echo. 5 μL kinase reaction buffer (0.02% Brij-35, 2 mM DTT, 50 mM HEPES pH 7.5, MgCl2 10 mM, BSA 0.01% and O-glycerophosphate 12.5 mM) containing HPK1 (3.2 nM) enzyme was transferred to each well and incubated for 15 minutes at room temperature at 60% humidity. The enzymatic reaction was started by adding 5 μl of Start-Mix (10 μM ATP and 3.235 μM MBP). After 120 minutes, the reaction was stopped by adding 5 μL of ADP-Glo reagent (Promega, V9101) and incubating for 40 min. in the dark at 23° C. To determine the level of ADP, 10 μl ADP-Glo Detection solution was added and incubated for 1 hour at 23° C. in the dark. The plate was transferred to a Perkin Elmer EnVision (2104 Multilabel Reader) for luminescence detection and percent inhibition activity and IC50 value were determined using Genedata Screener.

[2] = molecular target: HPK1 (SLP76 phosphorylation at Ser376 in Jurkat and EL-4 cells) (Homo sapiens, UniProt Q92918); type: cell-based; conditions: αCD3/αCD28 Dynabeads stimulated cells, pSLP76 (Ser376) detection; read-out: HPK1 pSLP76 IC50
Description: Cellular Assay—Phospho-SLP-76 (Ser376).
Inhibition of HPK1 enzymatic activity in cells was determined by detection of SLP76 phosphorylation at Ser376 residue in lysate from Jurkat (human) and EL-4 (mouse) cells. Jurkat and EL-4 cells express both HPK1 and SLP76 naturally. All cells were cultured in RPMI 1640 media containing 10% heat inactivated fetal bovine serum (FBS) and 1×Penicillin-Streptomycin. In either Jurkat or El-4 assay, cells were pre-incubated with test compounds prior to T cell stimulation by respective αCD3/αCD28 Dynabeads™. For detection, plates were read on the Envision and percent inhibition and IC50 were determined by Smart fit in Genedata Analyzer.
For Jurkat cells: 35 μL cell suspension were dispensed at a density of 30,000 cells/well in 384-well plates containing HBSS (Gibco, 14025076)+0.1% BSA). 10-point logarithmic serial dilution of test compounds in DMSO were prepared by a Hamilton automated liquid handling robot and 35 nL was transferred into each well by an Echo liquid handler. After 60 min. pre-incubation, the cells were stimulated by adding 5 μL human T activator αCD3/αCD28 Dynabeads™ (Gibco, 11132D) at 1.2×107 beads/mL for 15 minutes at 37° C. Detection of Ser376 phosphorylation status was accomplished by first adding 10 μL of 5×AlphaLISA lysis buffer (Perkin Elmer, ALSU-PSLP-A500) to each well of the cell plate using a Multidrop Combi (5840300), followed by 20 minutes shaking. 10 μL cell lysate from each treatment were then transferred to a white 384-well plate (Corning 3572) and incubated with AlphaLISA acceptor beads for one hour (AlphaLISA SureFire Ultra p-SLP76(Ser376), Perkin Elmer, ALSU-PSLP-A500), and donor beads for additional 2 hours at room temperature in the dark.
For EL-4.IL2 assay, 50 μL cell suspension at 2×10^6 cells/mL in HBSS were first dispensed into 384-well plates and then 50 nL serial dilutions of test compounds were spotted to each well by an Echo liquid handler. After 60 min. incubation at 37° C., cells were stimulated by adding 5 μL mouse T cell activator αCD3/αCD28 Dynabeads™ (ThermFisher Scientific, 11452D) for 30 minutes at 37° C. After a brief spin and subsequent supernatant discarded, 12.5 μL of Cisbio lysis buffer were added to each well and plates were shaken for 30 min at 450 RPM. For detection, 4 μL prepared HTRF antibody mixture (Cisbio, 63ADK000U) in detection buffer were mixed with 16 μl of cell lysate and plates were incubated at room temperature for 19 hours prior to EnVision reading.

full-length human HPK1 (MAP4K1), sequence (Q92918 whole entry): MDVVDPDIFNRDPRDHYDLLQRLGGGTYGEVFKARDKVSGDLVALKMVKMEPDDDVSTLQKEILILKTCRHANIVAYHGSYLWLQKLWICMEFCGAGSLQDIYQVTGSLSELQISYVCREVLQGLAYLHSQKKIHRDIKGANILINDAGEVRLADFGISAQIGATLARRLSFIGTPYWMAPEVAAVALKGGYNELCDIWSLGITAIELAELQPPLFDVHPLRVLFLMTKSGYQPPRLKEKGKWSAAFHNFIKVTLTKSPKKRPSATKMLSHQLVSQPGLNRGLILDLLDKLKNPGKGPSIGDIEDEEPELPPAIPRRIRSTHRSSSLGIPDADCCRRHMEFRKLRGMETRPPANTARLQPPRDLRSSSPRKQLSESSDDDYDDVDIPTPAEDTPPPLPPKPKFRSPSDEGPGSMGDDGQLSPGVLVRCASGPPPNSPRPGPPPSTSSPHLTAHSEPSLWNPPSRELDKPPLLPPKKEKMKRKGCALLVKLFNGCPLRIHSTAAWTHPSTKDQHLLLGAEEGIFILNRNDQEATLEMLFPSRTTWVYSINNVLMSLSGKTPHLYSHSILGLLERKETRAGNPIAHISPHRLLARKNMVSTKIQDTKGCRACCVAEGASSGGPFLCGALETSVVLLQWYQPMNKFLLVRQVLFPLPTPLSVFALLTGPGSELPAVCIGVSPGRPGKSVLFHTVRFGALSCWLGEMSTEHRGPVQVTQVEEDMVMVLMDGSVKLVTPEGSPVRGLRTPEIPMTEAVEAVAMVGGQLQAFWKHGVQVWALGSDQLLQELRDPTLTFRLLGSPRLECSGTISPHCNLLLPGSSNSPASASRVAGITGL
HPK1 (SLP76 phosphorylation at Ser376 in Jurkat and EL-4 cells), sequence (Q92918 whole entry, looked up): as the sequence (Q92918 whole entry) above

IC50 [1] [nM]	IC50 [2] [nM]	SMILES
< 100	500 to 1000	Cc1cc(Nc2ncc3c(n2)CN(c2cnc4c(c2C)NCCO4)CC3)ccc1N(C)CCN1CCOCC1 [Example 17, N1,2-dimethyl-N4-(7-{8-methyl-1H,2H,3H-pyrido[2,3-b][1,4]oxazin-7-yl}-5H,6H,7H,8H-pyrido[3,4-d]pyrimidin-2-yl)-N1-[2-(morpholin-4-yl)ethyl]benzene-1,4-diamine; formic acid]
< 100	500 to 1000	Cc1c(N2CCc3cnc(Nc4ccc(C5(S(C)(=O)=O)CC5)nc4)nc3C2)cnc2c1NCCO2 [Example 18, 6-(1-methanesulfonylcyclopropyl)-N-(7-{8-methyl-1H,2H,3H-pyrido[2,3-b][1,4]oxazin-7-yl}-5H,6H,7H,8H-pyrido[3,4-d]pyrimidin-2-yl)pyridin-3-amine]
< 100	< 500	Cc1c(N2CCc3cnc(Nc4cnc(CS(C)(=O)=O)c(F)c4)nc3C2)cnc2c1NCCO2 [Example 19, 5-fluoro-6-(methanesulfonylmethyl)-N-(7-{8-methyl-1H,2H,3H-pyrido[2,3-b][1,4]oxazin-7-yl}-5H,6H,7H,8H-pyrido[3,4-d]pyrimidin-2-yl)pyridin-3-amine]
< 100	> 1000	Cc1c(N2CCc3cnc(Nc4ccc(C(C)(C)S(C)(=O)=O)nc4)nc3C2)cnc2c1NCCO2 [Example 20, 6-(2-methanesulfonylpropan-2-yl)-N-(7-{8-methyl-1H,2H,3H-pyrido[2,3-b][1,4]oxazin-7-yl}-5H,6H,7H,8H-pyrido[3,4-d]pyrimidin-2-yl)pyridin-3-amine]
< 100	500 to 1000	Cc1cc(Nc2ncc3c(n2)CN(c2cnc4c(c2C)NCCO4)CC3)cnc1CS(C)(=O)=O [Example 21, 6-(methanesulfonylmethyl)-5-methyl-N-(7-{8-methyl-1H,2H,3H-pyrido[2,3-b][1,4]oxazin-7-yl}-5H,6H,7H,8H-pyrido[3,4-d]pyrimidin-2-yl)pyridin-3-amine]
< 100	500 to 1000	Cc1cc(Nc2ncc3c(n2)CN(c2cnc4c(c2C)NCCO4)CC3)ccc1NCCN1CCOCC1 [Example 23, 2-methyl-N4-(7-{8-methyl-1H,2H,3H-pyrido[2,3-b][1,4]oxazin-7-yl}-5H,6H,7H,8H-pyrido[3,4-d]pyrimidin-2-yl)-N1-[2-(morpholin-4-yl)ethyl]benzene-1,4-diamine]
< 100	500 to 1000	Cc1c(N2CCc3cnc(Nc4ccc(S(C)(=O)=O)cc4)nc3C2)cnc2c1NCCO2 [Example 24, N-(4-methanesulfonylphenyl)-7-{8-methyl-1H,2H,3H-pyrido[2,3-b][1,4]oxazin-7-yl}-5H,6H,7H,8H-pyrido[3,4-d]pyrimidin-2-amine]
< 100	< 500	Cc1c(N2CCc3cnc(Nc4ccc(OCS(C)(=O)=O)cc4)nc3C2)cnc2c1NCCO2 [Example 25, N-[4-(methanesulfonylmethoxy)phenyl]-7-{8-methyl-1H,2H,3H-pyrido[2,3-b][1,4]oxazin-7-yl}-5H,6H,7H,8H-pyrido[3,4-d]pyrimidin-2-amine]
< 100	500 to 1000	Cc1c(N2CCc3cnc(Nc4ccc(NCCN(C)C)nc4)cc3C2)cnc2c1NCCO2 [Example 26, N2-[2-(dimethylamino)ethyl]-N5-(6-{8-methyl-1H,2H,3H-pyrido[2,3-b][1,4]oxazin-7-yl}-5,6,7,8-tetrahydro-2,6-naphthyridin-3-yl)pyridine-2,5-diamine]
< 100	500 to 1000	Cc1cc(Nc2cc3c(cn2)CCN(c2cnc4c(c2C)NCCO4)C3)ccc1C(=O)NCCN1CCOCC1 [Example 27, 2-methyl-4-[(6-{8-methyl-1H,2H,3H-pyrido[2,3-b][1,4]oxazin-7-yl}-5,6,7,8-tetrahydro-2,6-naphthyridin-3-yl)amino]-N-[2-(morpholin-4-yl)ethyl]benzamide]
< 100	500 to 1000	Cc1cc(Nc2ncc3c(n2)CN(c2cnc4c(c2C)NCCO4)CC3)cnc1NCCN(C)C [Example 28, N2-[2-(dimethylamino)ethyl]-3-methyl-N5-(7-{8-methyl-1H,2H,3H-pyrido[2,3-b][1,4]oxazin-7-yl}-5H,6H,7H,8H-pyrido[3,4-d]pyrimidin-2-yl)pyridine-2,5-diamine]
< 100	< 500	Cc1c(N2CCc3cnc(Nc4ccc(NC(=O)CN5CCOCC5)c(C(F)(F)F)c4)nc3C2)cnc2c1NCCO2 [Example 29, N-{4-[(7-{8-methyl-1H,2H,3H-pyrido[2,3-b][1,4]oxazin-7-yl}-5H,6H,7H,8H-pyrido[3,4-d]pyrimidin-2-yl)amino]-2-(trifluoromethyl)phenyl}-2-(morpholin-4-yl)acetamide]
< 100	< 500	Cc1c(N2CCc3cnc(Nc4ccc5c(c4)CN(CC(C)(C)O)C5)nc3C2)cnc2c1NCCO2 [Example 30, 2-methyl-1-{5-[(7-{8-methyl-1H,2H,3H-pyrido[2,3-b][1,4]oxazin-7-yl}-5H,6H,7H,8H-pyrido[3,4-d]pyrimidin-2-yl)amino]-2,3-dihydro-1H-isoindol-2-yl}propan-2-ol]
< 100	> 1000	Cc1c(N2CCc3cnc(Nc4ccc(NC(=O)CN(C)C)nc4)cc3C2)cnc2c1NCCO2 [Example 31, 2-(dimethylamino)-N-{5-[(6-{8-methyl-1H,2H,3H-pyrido[2,3-b][1,4]oxazin-7-yl}-5,6,7,8-tetrahydro-2,6-naphthyridin-3-yl)amino]pyridin-2-yl}acetamide]
< 100	> 1000	Cc1c(N2CCc3cnc(Nc4ccc(NC(=O)CN5CCOCC5)nc4)cc3C2)cnc2c1NCCO2 [Example 32, N-{5-[(6-{8-methyl-1H,2H,3H-pyrido[2,3-b][1,4]oxazin-7-yl}-5,6,7,8-tetrahydro-2,6-naphthyridin-3-yl)amino]pyridin-2-yl}-2-(morpholin-4-yl)acetamide]
< 100	> 1000	Cc1cc(Nc2cc3c(cn2)CCN(c2cnc4c(c2C)NCCO4)C3)ccc1NC(=O)CN(C)C [Example 33, 2-(dimethylamino)-N-{2-methyl-4-[(6-{8-methyl-1H,2H,3H-pyrido[2,3-b][1,4]oxazin-7-yl}-5,6,7,8-tetrahydro-2,6-naphthyridin-3-yl)amino]phenyl}acetamide]
< 100	< 500	Cc1cc(Nc2cc3c(cn2)CCN(c2cnc4c(c2C)NCCO4)C3)ccc1NC(=O)CN1CCOCC1 [Example 34, N-{2-methyl-4-[(6-{8-methyl-1H,2H,3H-pyrido[2,3-b][1,4]oxazin-7-yl}-5,6,7,8-tetrahydro-2,6-naphthyridin-3-yl)amino]phenyl}-2-(morpholin-4-yl)acetamide]
< 100	500 to 1000	Cc1cc(Nc2ncc3c(n2)CN(c2cnc4c(c2C)NCCO4)CC3)ccc1C(=O)NC1CN(C)C1 [Example 35, 2-methyl-4-[(7-{8-methyl-1H,2H,3H-pyrido[2,3-b][1,4]oxazin-7-yl}-5H,6H,7H,8H-pyrido[3,4-d]pyrimidin-2-yl)amino]-N-(1-methylazetidin-3-yl)benzamide]
